Laboratory results published in patent publication US20250034586A1, “METHOD FOR EDITING BANANA GENES” (Tropic Biosciences UK Limited, priority 2021, published 2025).

Experiments:
Type in all cases: cell-based
banana ECS [1] = assay: Comparison of Agrobacterium transformation and particle bombardment under CSF selection; conditions: CSF 25 μg/L, particle bombardment
Description: Transformation using agrobacterium and particle bombardment was compared.
Banana ECS with cells 2/3 days old was pelleted and resuspended in CS medium. 0.5 mL of the suspension (approximately 0.1 mL of ECS) was split accordingly to the number of transformations into small Eppendorf tubes. The cells were incubated at 45° C. for 5 min and after they had cooled down for another 5 min. Then, 1 mL of agrobacterium suspension was added to the banana ECS. The mixture was mixed well and spun down at 1000 rpm for 5 min, and then, it was incubated for 25 min at room temperature. The banana cells were pooled, and the bacteria suspension was removed. The cells were inoculated in CS plates supplemented with acetosyringone 100 μM for 3 days at room temperature to promote transformation.
After 3 days, the banana ECS were collected from the previous media and transferred to CS media supplemented with cefotaxime 300 mg/L. One week later, the banana cells were transferred to EDM plates supplemented with cefo 300 mg/L (control), or cefo 300 mg/L and CSF 25 μg/L or cefo 300 mg/L and CSF 50 μg/L. The media was refreshed every 2 weeks until embryos were developed. Subsequently, the banana embryos were transferred to maturation media without CSF (EMM) for a month and then they were transferred to germination medium (GM4) without CSF until shoots developed.

banana ECS [2] = assay: CSF selection of embryos from Agrobacterium-transformed banana ECS; conditions: after 3 months
Description: Agrobacterium tumefaciens AGL1 carrying the binary plasmids pMol_0628, pMol_0630, and pMol_0632 were streaked from glycerol in LB solid medium supplemented with rifampicin 50 mg/L, kanamycin 100 mg/L and carbenicillin 50 mg/L and incubated at 28° C. for 2 days. On the second day, the bacteria were inoculated in MG/L medium (discussed in Sarkar et al., Methods Mol Biol. 2013; 966: 187-204) supplemented with the same antibiotics and incubated overnight at 28° C. Next day, the cultures were spun down at 4000 rpm for 10 min to pellet the cells and after they were resuspended in ABIM (Agrobacterium induction media; discussed in Sarkar et al., Methods Mol Biol. 2013; 966: 187-204) to induce virulence and incubated overnight in the dark at room temperature. The OD600 of the bacteria was measured using NanoDrop2000 and normalised to 0.6 in CS liquid media supplemented with acetosyringone (100 μM).
Banana ECS with 2/3 day-old cells was pelleted and resuspended in CS medium. 0.5 mL of the suspension (approximately 0.1 mL of ECS) was split according to the number of transformations into small Eppendorf tubes. The cells were incubated at 45° C. for 5 min and after they were incubated at room temperature for another 5 min. Then, 1 mL of agrobacterium suspension was added to each banana ECS sample. […]

[3] = test system: banana embryos or leaf material; assay: Comparison of selection using ALS inhibitor, G418 or hygromycin (genotyping of embryos or leaf material)
From the text: In every case, regenerated material was transformed with constructs containing T-DNA that would generate resistance in positive transformants.

In the case of `COc1nc(C)nc(NC(=O)NS(=O)(=O)c2ccccc2Cl)n1` [CSF, chlorsulfuron], the “Suitability for selection of edited bombarded cells” value (banana ECS [1]) is reported as “too strong for selection of edited bombarded cells”, the “Embryos, untransformed cells” value (banana ECS [2]; CSF 25 μg/L) is reported as “No” and the “Embryos, untransformed cells” value (banana ECS [2]; CSF 50 μg/L) is reported as “No”. For the same compound, the Editing frequency ([3]; CSF selected material) was 90-94%, the “Efficiency of generating transgenic lines of banana” value ([3]; CSF selection, embryos and shoots) was 75-84% and the Editing frequency ([3]; Embryos, CSF selection) was 57/63 = 90.5%. The Non-transgenic edited ([3]; Embryos, CSF selection) was 19/584 = 3.2%, the Transgenic frequency ([3]; Embryos, CSF selection) was 344/408 = 84.3% and the Editing frequency ([3]; Shoots, CSF selection) was 34/36 = 94.4%. The Non-transgenic edited ([3]; Shoots, CSF selection) was 3/46 = 6.5% and the Transgenic frequency ([3]; Shoots, CSF selection) was 53/70 = 75.7%.
